Data as given in the NIST ThermoML archive (doi:10.1016/j.fluid.2006.03.009).
Numbers after ± are expanded uncertainties.

Conditions: Liquid

| Structure (SMILES) | vapor or sublimation pressure (273.15 K) [kPa] | vapor or sublimation pressure (278.15 K) [kPa] | vapor or sublimation pressure (283.15 K) [kPa] | vapor or sublimation pressure (293.15 K) [kPa] | vapor or sublimation pressure (303.15 K) [kPa] | vapor or sublimation pressure (313.15 K) [kPa] |
| --- | --- | --- | --- | --- | --- | --- |
| C=CC [propene] | 586 ± 2.8 | 678.5 ± 3 | 780.8 ± 3.3 | 1019 ± 3.8 | 1307.6 ± 4.6 | 1652.2 ± 5.6 |
| CCC [propane] | 474 ± 2.6 | 550.8 ± 2.8 | 636 ± 2.9 | 836.2 ± 3.4 | 1077.6 ± 4 | 1368 ± 4.7 |
